From patent publication US7528239B1, “Receptor that binds trail” (Immunex Corporation, priority 1997, dated 2009)
Peptide text beside a SMILES is read from it. * marks the point of attachment. Cbz = O=C(OCc1ccccc1)*; CH2F = FC*

Tests used:
[1] = tested on: CV-1/EBNA cells expressing TRAIL-R; assay: TRAIL-R-induced death of transfected CV-1/EBNA cells (lacZ co-transfection, X-gal staining); assay type: cell-based, African green monkey; details: 48 hours after transfection
Experimental: CV-1/EBNA cells were transfected, by the DEAE-dextran method, with expression plasmids for TRAIL-R (pDC409-TRAIL-R), together with a threefold excess of empty expression vector (pDC409) in the presence or absence of z-VAD-fmk (10 μM; in the culture medium), or together with a threefold excess of expression vector pDC409-CrmA, pDC409-p35, or pDC409-FADD-DN. In addition, 400 ng/slide of an expression vector for the E. coli lacz gene was co-transfected together with all DNA mixes. The transfected cells were cultured in chambers mounted on slides.
48 hours after transfection, cells were washed with PBS, fixed with glutaraldehyde and incubated with X-gal (5-bromo-4-chloro-3-indoxyl-β-D-galactopyranoside). Cells expressing β-galactosidase stain blue. A decrease in the percentage of stained cells indicates loss of β-galactosidase expression, and correlates with death of cells that express the protein(s) co-transfected with the lacz gene.

[2] = molecular target: T1, full length human TRAIL-R (Homo sapiens, UniProt O14763, V191A); assay: FACS binding assay of LZ-TRAIL to CV-1/EBNA cells expressing recombinant TRAIL-R; details: LZ-TRAIL 5 μg/ml; cells co-transfected with TRAIL-R and CrmA vectors compared to CrmA vector alone; 48 hours after transfection
T1 construct: expressed in transfected cells; host or cells: CV-1/EBNA cells, co-transfected with pDC409-CrmA
Experimental: Full length human TRAIL-R was expressed and tested for the ability to bind TRAIL. The binding assay was conducted as follows.
A fusion protein comprising a leucine zipper peptide fused to the N-terminus of a soluble TRAIL polypeptide (LZ-TRAIL) was employed in the assay. An expression construct was prepared, essentially as described for preparation of the Flag®-TRAIL expression construct in Wiley et al. (Immunity, 3:673-682, 1995; hereby incorporated by reference), except that DNA encoding the Flag® peptide was replaced with a sequence encoding a modified leucine zipper that allows for trimerization. The construct, in expression vector pDC409, encoded a leader sequence derived from human cytomegalovirus, followed by the leucine zipper moiety fused to the N-terminus of a soluble TRAIL polypeptide. The TRAIL polypeptide comprised amino acids 95-281 of human TRAIL (a fragment of the extracellular domain), as described in Wiley et al. (supra). […]
CV-1/EBNA cells were co-transfected with pDC409-TRAIL-R together with pDC409-CrmA, or with pDC409-CrmA alone. […] 48 hours after transfection, cells were detached non-enzymatically and incubated with LZ-TRAIL (5 μg/ml), a biotinylated anti-LZ monoclonal antibody (5 μg/ml), and phycoerythrin-conjugated streptavidin (1:400), before analysis by fluorescence-activated cell scanning (FACS). […]

[3] = tested on: TRAIL-induced apoptosis of Jurkat cells; assay: Blocking of TRAIL-induced apoptosis of Jurkat cells (MTT cell viability assay); assay type: cell-based, human; details: LZ-TRAIL 13 ng/ml, test substance serially diluted from 10 μg/ml
Experimental: TRAIL-R was tested for the ability to block TRAIL-induced apoptosis of Jurkat cells. The TRAIL-R employed in the assay was in the form of a fusion protein designated sTRAIL-R/Fc, which comprised the extracellular domain of human TRAIL-R, fused to the N-terminus of an Fc polypeptide derived from human IgG1.
A fusion protein designated TNF-R2—Fc, employed as a control, comprised the extracellular domain of the TNF receptor protein known as p75 or p80 TNF-R (Smith et al., Science 248:1019-1023, 1990; Smith et al. Cell 76:959-962, 1994), fused to an Fc polypeptide. A mouse monoclonal antibody that is a blocking antibody directed against human TRAIL, was employed in the assay as well.
Jurkat cells were incubated with varying or constant concentrations of LZ-TRAIL (the LZ-TRAIL fusion protein described in example 6), in the absence or presence of varying concentrations of sTRAIL-R-Fc, TNF-R2-Fc, or the TRAIL-specific monoclonal antibody. Cell death was quantitated using an MTT cell viability assay (MTT is 3-[4,5-dimethylthiazol-2-yl]-2,5-diphenyltetrazolium bromide), as previously described (Mosmann, J. Immunol. Methods 65:55-63, 1983). […]

Molecule: COC(=O)C[C@H](NC(=O)[C@H](C)NC(=O)[C@@H](NC(=O)OCc1ccccc1)C(C)C)C(=O)CF [z-VAD-fmk, benzyloxycarbonyl-Val-Ala-Asp-fluoromethylketone, reference compound] (Cbz-Val-Ala-Asp(OMe)-CH2F)
- reduction of death of transfected cells expressing TRAIL-R ([1]; 10 μM in the culture medium): effectively reduced death

Molecule: LZ-TRAIL: leucine zipper peptide fused to the N-terminus of a soluble TRAIL polypeptide (amino acids 95-281 of human TRAIL)
- binding of LZ-TRAIL to transfected cells [2]: significantly enhanced binding

Molecule: sTRAIL-R/Fc: extracellular domain of human TRAIL-R, fused to the N-terminus of an Fc polypeptide derived from human IgG1
- blocking of TRAIL-induced apoptosis (percent cell death) [3]: blocked TRAIL-induced apoptosis in a dose dependent fashion
- blocking of TRAIL-induced apoptosis (percent cell death) ([3]; listed as soluble TRAIL-R/Fc fusion protein): blocked TRAIL-induced apoptosis

B1: baculovirus p35: 35-kilodalton protein encoded by Autographa californica nuclear polyhedrosis virus, expressed from pDC409-p35 (protein, UniProt P08160 1-299, looked up)
Early 35 kDa protein: MCVIFPVEIDVSQTIIRDCQVDKQTRELVYINKIMNTQLTKPVLMMFNISGPIRSVTRKNNNLRDRIKSKVDEQFDQLERDYSDQMDGFHDSIKYFKDEHYSVSCQNGSVLKSKFAKILKSHDYTDKKSIEAYEKYCLPKLVDERNDYYVAVCVLKPGFENGSNQVLSFEYNPIGNKVIVPFAHEINDTGLYEYDVVAYVDSVQFDGEQFEEFVQSLILPSSFKNSEKVLYYNEASKNKSMIYKALEFTTESSWGKSEKYNWKIFCNGFIYDKKSKVLYVKLHNVTSALNKNVILNTIK
- reduction of death of transfected cells expressing TRAIL-R ([1]; co-transfected, threefold excess of expression vector): effectively reduced death
